The assay deals with T1, human V1a receptor (Homo sapiens, UniProt P37288).
T1 construct: expressed in transfected cells; host or cells: HEK293 cells, transiently transfected; membranes prepared
Kind of assay: human V1a receptor binding (3H-Vasopressin SPA, membranes of transfected HEK293 cells). The protocol:
The human V1a receptor was cloned by RT-PCR from total human liver RNA. The coding sequence was subcloned in an expression vector after sequencing to confirm the identity of the amplified sequence. […] Cell membranes were prepared from HEK293 cells transiently transfected with the expression vector and grown in 20 liter fermenters with the following protocol.
50 g of cells are resuspended in 30 ml freshly prepared ice cold Lysis buffer (50 mM HEPES, 1 mM EDTA, 10 mM MgCl2 adjusted to pH=7.4+ complete cocktail of protease inhibitor (Roche Diagnostics)). Homogenized with Polytron for 1 min and sonicated on ice for 2×2 minutes at 80% intensity (Vibracell sonicator). The preparation is centrifuged 20 min at 500 g at 4° C., the pellet is discarded and the supernatant centrifuged 1 hour at 43,000 g at 4° C. (19'000 rpm). The pellet is resuspended in 12.5 ml Lysis buffer+12.5 ml Sucrose 20% and homogenized using a Polytron for 1-2 min. The protein concentration is determined by the Bradford method, and aliquots are stored at −80° C. until use. For binding studies 60 mg Yttrium silicate SPA beads (Amersham) are mixed with an aliquot of membrane in binding buffer (50 mM Tris, 120 mM NaCl, 5 mM KCl, 2 mM CaCl2, 10 mM MgCl2) for 15 minutes with mixing. 50 ul of bead/membrane mixture is then added to each well of a 96 well plate, followed by 50 ul of 4 nM 3H-Vasopressin (American Radiolabeled Chemicals). For total binding measurement 100 ul of binding buffer are added to the respective wells, for non-specific binding 100 ul of […] cold vasopressin and for compound testing 100 ul of a serial dilution of each compound in 2% DMSO. The plate is incubated 1 h at room temperature, centrifuged 1 min at 1000 g and counted on a Packard Top-Count. Non-specific binding counts are subtracted from each well, and data is normalized to the maximum specific binding set at 100%. To calculate an IC 50 the curve is fitted using a non-linear regression model (XLfit) and the Ki is calculated using the Cheng-Prussoff equation.

[1] abbreviates: displacement of 4 nM 3H-Vasopressin, HEK293 cell membranes, Ki by Cheng-Prussoff from IC50, read-out: Ki.

Like-named read-outs stand apart in the source and are kept apart here.

T1 sequence (P37288 whole entry): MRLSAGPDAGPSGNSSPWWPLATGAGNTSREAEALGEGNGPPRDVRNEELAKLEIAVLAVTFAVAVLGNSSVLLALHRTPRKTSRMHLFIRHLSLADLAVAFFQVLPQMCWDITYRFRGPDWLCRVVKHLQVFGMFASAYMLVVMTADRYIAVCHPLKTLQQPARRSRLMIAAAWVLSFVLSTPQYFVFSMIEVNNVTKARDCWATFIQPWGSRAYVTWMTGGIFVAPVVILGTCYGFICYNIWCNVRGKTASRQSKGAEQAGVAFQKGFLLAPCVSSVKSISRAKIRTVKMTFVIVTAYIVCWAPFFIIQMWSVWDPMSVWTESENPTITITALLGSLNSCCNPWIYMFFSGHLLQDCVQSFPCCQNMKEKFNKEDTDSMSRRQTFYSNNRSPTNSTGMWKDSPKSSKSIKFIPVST

Compound `CN1CCC[C@H]1Cn1cc(C(=O)N2CCN(c3ccccc3F)CC2)c2ccc(Cl)cc21` [Example 203, [6-Chloro-1-((S)-1-methyl-pyrrolidin-2-ylmethyl)-1H-indol-3-yl]-[4-(2-fluoro-phenyl)-piperazin-1-yl]-methanone] came in with an inhibition constant (Ki) of 2 nM.

`CN(C)C(=O)Cn1cc(C(=O)N2CCN(c3ccc(F)cc3F)CC2)c2ccc(Cl)cc21` [Example 205, 2-{6-Chloro-3-[4-(2,4-difluoro-phenyl)-piperazine-1-carbonyl]-indol-1-yl}-N,N-dimethyl-acetamide]: the Ki was 10 nM.

With `CN(C)C(=O)Cn1cc(C(=O)N2CCN(c3ncccc3C(F)(F)F)CC2)c2ccc(Cl)cc21` [Example 211, 2-{6-Chloro-3-[4-(3-trifluoromethyl-pyridin-2-yl)-piperazine-1-carbonyl]-indol-1-yl}-N,N-dimethyl-acetamide], the Ki under setting [1] was determined as 13 nM.

With `O=C(c1cn(C[C@H]2CCCN2)c2cc(Cl)ccc12)N1CCN(c2ccccc2F)CC1` [Example 214, (6-Chloro-1-(R)-1-pyrrolidin-2-ylmethyl-1H-indol-3-yl)-[4-(2-fluoro-phenyl)-piperazin-1-yl]-methanone], the affinity corresponds to a Ki of 16 nM.

In turn, `CN1CCC[C@@H]1Cn1cc(C(=O)N2CCN(c3ccccc3F)CC2)c2ccc(Cl)cc21` [Example 215, [6-Chloro-1-((R)-1-methyl-pyrrolidin-2-ylmethyl)-1H-indol-3-yl]-[4-(2-fluoro-phenyl)-piperazin-1-yl]-methanone] displayed a Ki of 6 nM.

`CC(=O)NCCn1cc(C(=O)N2CCN(c3ccccc3F)CC2)c2ccc(Cl)cc21` [Example 217, N-(2-{6-Chloro-3-[4-(2-fluoro-phenyl)-piperazine-1-carbonyl]-indol-1-yl}-ethyl)-acetamide] yielded an inhibition constant Ki of 21 nM.

On to `CS(=O)(=O)NCCn1cc(C(=O)N2CCN(c3ccccc3F)CC2)c2ccc(Cl)cc21` [Example 218, N-(2-{6-Chloro-3-[4-(2-fluoro-phenyl)-piperazine-1-carbonyl]-indol-1-yl}-ethyl)-methanesulfonamide], for which the Ki under setting [1] was 16 nM.

`CC(=O)N(C)CCn1cc(C(=O)N2CCN(c3ccccc3F)CC2)c2ccc(Cl)cc21` [Example 219, N-(2-{6-Chloro-3-[4-(2-fluoro-phenyl)-piperazine-1-carbonyl]-indol-1-yl}-ethyl)-N-methyl-acetamide] returned an inhibitory constant (Ki) of 15 nM.

In turn, `CN(CCn1cc(C(=O)N2CCN(c3ccccc3F)CC2)c2ccc(Cl)cc21)S(C)(=O)=O` [Example 220] showed an inhibition constant Ki of 17 nM.

Compound `CNC(=O)Cn1cc(C(=O)N2CCN(c3nccc4sccc34)CC2)c2ccc(Cl)cc21` [Example 224, 2-[6-Chloro-3-(4-thieno[3,2-c]pyridin-4-yl-piperazine-1-carbonyl)-indol-1-yl]-N-methyl-acetamide] registered an inhibition constant (Ki) of 27 nM.

`CNC(=O)Cn1cc(C(=O)N2CCN(c3ncccc3I)CC2)c2ccc(Cl)cc21` [Example 225, 2-{6-Chloro-3-[4-(3-iodo-pyridin-2-yl)-piperazine-1-carbonyl]-indol-1-yl}-N-methyl-acetamide]: the Ki under setting [1] turned out to be 12 nM.

One may read the Ki as a measure of affinity in units of concentration, obtained from inhibition or displacement.

For the origin of these results see US7781436B2 (Hoffmann-La Roche Inc., priority 2005, dated 2010).
